Earlier results in PMC9516332 (Frontiers in Oncology, 2022).
Like-named read-outs stand apart in the source and are kept apart here.

Assays:
Settings in all cases: cited from earlier work
[1] = biological target: panel of 255 wild-type kinases (Homo sapiens, UniProt P48729)
[2] = biological target: T1, panel of 255 wild-type kinases (Homo sapiens, UniProt Q9UL54)
T1 sequence (Q9UL54 1-1235): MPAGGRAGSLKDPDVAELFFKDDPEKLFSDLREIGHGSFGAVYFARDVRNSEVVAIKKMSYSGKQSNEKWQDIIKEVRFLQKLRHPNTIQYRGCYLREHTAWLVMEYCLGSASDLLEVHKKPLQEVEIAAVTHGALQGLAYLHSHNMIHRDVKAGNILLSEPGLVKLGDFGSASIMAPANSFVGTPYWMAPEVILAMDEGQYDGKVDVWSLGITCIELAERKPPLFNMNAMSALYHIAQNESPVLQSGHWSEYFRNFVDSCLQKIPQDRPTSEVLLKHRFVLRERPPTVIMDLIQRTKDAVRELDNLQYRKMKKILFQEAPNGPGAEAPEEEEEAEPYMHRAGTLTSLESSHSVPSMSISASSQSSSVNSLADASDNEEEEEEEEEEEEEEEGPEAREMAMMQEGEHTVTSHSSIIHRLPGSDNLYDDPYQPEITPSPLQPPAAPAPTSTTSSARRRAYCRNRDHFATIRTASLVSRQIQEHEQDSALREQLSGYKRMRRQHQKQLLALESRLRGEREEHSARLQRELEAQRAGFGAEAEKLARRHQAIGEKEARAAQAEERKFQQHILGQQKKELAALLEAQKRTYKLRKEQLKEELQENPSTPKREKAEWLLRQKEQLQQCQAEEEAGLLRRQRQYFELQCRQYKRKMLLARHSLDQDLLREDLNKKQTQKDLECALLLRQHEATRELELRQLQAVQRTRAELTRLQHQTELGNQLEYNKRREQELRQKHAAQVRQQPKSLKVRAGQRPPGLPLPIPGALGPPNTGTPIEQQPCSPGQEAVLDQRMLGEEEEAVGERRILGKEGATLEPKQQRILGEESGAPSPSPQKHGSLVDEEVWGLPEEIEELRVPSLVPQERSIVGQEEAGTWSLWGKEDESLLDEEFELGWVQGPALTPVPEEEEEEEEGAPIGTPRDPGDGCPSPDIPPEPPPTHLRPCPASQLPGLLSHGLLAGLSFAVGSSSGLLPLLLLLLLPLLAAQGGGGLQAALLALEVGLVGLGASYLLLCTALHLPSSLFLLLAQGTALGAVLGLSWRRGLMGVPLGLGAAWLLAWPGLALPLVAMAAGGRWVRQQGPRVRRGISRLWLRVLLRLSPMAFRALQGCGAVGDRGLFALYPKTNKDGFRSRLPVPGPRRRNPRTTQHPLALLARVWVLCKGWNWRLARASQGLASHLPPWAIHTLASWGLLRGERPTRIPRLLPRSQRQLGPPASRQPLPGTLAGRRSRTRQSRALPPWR

[3] = biological target: T2, panel of 255 wild-type kinases (Homo sapiens, UniProt P29320)
T2 sequence (P29320 21-983): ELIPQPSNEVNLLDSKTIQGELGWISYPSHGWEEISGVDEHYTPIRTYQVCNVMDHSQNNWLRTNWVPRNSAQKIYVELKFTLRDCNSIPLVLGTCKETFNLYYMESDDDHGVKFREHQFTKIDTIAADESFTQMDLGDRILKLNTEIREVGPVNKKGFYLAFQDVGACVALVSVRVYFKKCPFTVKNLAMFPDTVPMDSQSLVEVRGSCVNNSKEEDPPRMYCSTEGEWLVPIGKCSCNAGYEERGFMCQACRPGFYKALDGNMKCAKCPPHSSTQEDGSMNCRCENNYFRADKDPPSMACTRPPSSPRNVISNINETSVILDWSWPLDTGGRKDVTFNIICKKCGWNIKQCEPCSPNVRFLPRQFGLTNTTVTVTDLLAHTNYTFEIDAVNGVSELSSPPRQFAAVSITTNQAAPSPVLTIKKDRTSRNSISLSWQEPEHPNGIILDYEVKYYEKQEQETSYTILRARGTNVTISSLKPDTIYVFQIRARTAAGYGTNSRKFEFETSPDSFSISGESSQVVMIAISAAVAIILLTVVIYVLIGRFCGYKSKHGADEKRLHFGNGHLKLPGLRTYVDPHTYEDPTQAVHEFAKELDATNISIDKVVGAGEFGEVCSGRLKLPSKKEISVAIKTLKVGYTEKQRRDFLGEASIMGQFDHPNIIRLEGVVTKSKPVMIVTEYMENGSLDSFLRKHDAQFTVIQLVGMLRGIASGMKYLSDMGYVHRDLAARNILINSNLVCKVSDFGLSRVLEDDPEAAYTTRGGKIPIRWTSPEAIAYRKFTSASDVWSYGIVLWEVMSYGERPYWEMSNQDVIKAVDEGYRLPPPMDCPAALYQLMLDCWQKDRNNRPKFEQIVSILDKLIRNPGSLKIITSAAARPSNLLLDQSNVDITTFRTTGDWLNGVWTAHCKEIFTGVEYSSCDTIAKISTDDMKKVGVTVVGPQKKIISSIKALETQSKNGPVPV

[4] = biological target: panel of 255 wild-type kinases (Homo sapiens, UniProt Q9P1W9)
[5] = biological target: panel of 255 wild-type kinases (Homo sapiens, UniProt P48730)
[6] = biological target: panel of 255 wild-type kinases (Homo sapiens, UniProt Q9NYY3)
[7] = biological target: panel of 255 wild-type kinases (Homo sapiens, UniProt Q86Z02)
[8] = biological target: panel of 255 wild-type kinases (Homo sapiens, UniProt O96017)
[9] = kinase CK1α, 1 µmol/L single concentration, ref DOI: 10.1158/1535-7163.MCT-18-0877
[10] = kinase TAOK2, 1 µmol/L single concentration, ref DOI: 10.1158/1535-7163.MCT-18-0877
[11] = kinase EPHA3, 1 µmol/L single concentration, ref DOI: 10.1158/1535-7163.MCT-18-0877
[12] = kinase PIM2, 1 µmol/L single concentration, ref DOI: 10.1158/1535-7163.MCT-18-0877
[13] = kinase CK1δ, 1 µmol/L single concentration, ref DOI: 10.1158/1535-7163.MCT-18-0877
[14] = kinase PLK2, 1 µmol/L single concentration, ref DOI: 10.1158/1535-7163.MCT-18-0877
[15] = kinase HIPK1, 1 µmol/L single concentration, ref DOI: 10.1158/1535-7163.MCT-18-0877
[16] = CHK2 kinase assay, 1 µmol/L single concentration, ref DOI: 10.1158/1535-7163.MCT-18-0877

SMILES	%-inhibition at 1 µmol/L, CK1α [1, 9]	%-inhibition at 1 µmol/L, TAOK2 [2, 10]	%-inhibition at 1 µmol/L, EPHA3 [3, 11]	%-inhibition at 1 µmol/L, PIM2 [4, 12]	%-inhibition at 1 µmol/L, CK1δ [5, 13]	%-inhibition at 1 µmol/L, PLK2 [6, 14]	%-inhibition at 1 µmol/L, HIPK1 [7, 15]	%-inhibition CHK2 [8, 16]	%-inhibition at 1 µmol/L, CK1α [1]	%-inhibition at 1 µmol/L, TAOK2 [2]	%-inhibition at 1 µmol/L, EPHA3 [3]	%-inhibition at 1 µmol/L, PIM2 [4]	%-inhibition at 1 µmol/L, CK1δ [5]	%-inhibition at 1 µmol/L, PLK2 [6]	%-inhibition at 1 µmol/L, HIPK1 [7]	%-inhibition CHK2 [8]
CC#CC(=O)N1CCC[C@H]1c1nc(-c2ccc(C(=O)Nc3ccccn3)cc2)c2c(N)nccn12 [acalabrutinib]	10%	5.31%	-2%	-17%	2.76%	2.47%	-15%	-6%	–	–	–	–	–	–	–	–
CCc1cc2c(cc1N1CCC(N3CCOCC3)CC1)C(C)(C)c1[nH]c3cc(C#N)ccc3c1C2=O [alectinib]	22%	5.52%	3.25%	2.36%	-5.53%	6%	2.52%	96%	–	–	–	–	–	–	–	–
COc1cc(N2CCC(N3CCN(C)CC3)CC2)ccc1Nc1ncc(Cl)c(Nc2ccccc2P(C)(C)=O)n1 [brigatinib]	–	–	–	–	–	–	–	–	11%	16%	0.198%	-11%	-3.62%	0.275%	11%	96%
